Here are results for 3 molecules from paper PMC9910440, “NADP(H)-dependent biocatalysis without adding NADP(H)” (Proceedings of the National Academy of Sciences of the …, 2022).

Molecules are shown by their SMILES.

Test [1] concerns the target T1, IDH1 (isocitrate dehydrogenase 1) (Homo sapiens, UniProt O75874, R132H).
T1 construct: recombinant, purified; copurifies with NADP(H)
Put plainly: non-denaturing mass spectrometry; 1H NMR after denaturation. The format is binding. The note with it: copurified; NMR identifies NADPH only; resting state, no substrate.

Test [2] addresses T2, IDH1 (isocitrate dehydrogenase 1) (Homo sapiens, UniProt O75874).
T2 construct: recombinant, purified; copurifies with NADP(H)
Put plainly: 1H NMR of cofactor released by thermal denaturation; native MS; electrochemical retention. The format is binding. The note with it: copurified; resting state, no substrate; part of a NADP+/NADPH mixture.

The target of test [3] is T1, IDH1 (isocitrate dehydrogenase 1). Put plainly: electrochemical retention after buffer exchange and potential switch. The format is biochemical. The note with it: nanoconfined with FNR; resting state; binds much less tightly than NADPH; pH 8, 10 mM MgCl2.
The target of test [4] is T3, Ferredoxin NADP+ reductase (FNR) (Chlamydomonas reinhardtii, UniProt P53991).
T3 construct: gene PETH; recombinant, purified; 39 kDa; FAD flavoprotein
Put plainly: 1H NMR of cofactor released by denaturation. The note with it: prosthetic group. In kind it is binding.

T2 sequence (O75874 whole entry): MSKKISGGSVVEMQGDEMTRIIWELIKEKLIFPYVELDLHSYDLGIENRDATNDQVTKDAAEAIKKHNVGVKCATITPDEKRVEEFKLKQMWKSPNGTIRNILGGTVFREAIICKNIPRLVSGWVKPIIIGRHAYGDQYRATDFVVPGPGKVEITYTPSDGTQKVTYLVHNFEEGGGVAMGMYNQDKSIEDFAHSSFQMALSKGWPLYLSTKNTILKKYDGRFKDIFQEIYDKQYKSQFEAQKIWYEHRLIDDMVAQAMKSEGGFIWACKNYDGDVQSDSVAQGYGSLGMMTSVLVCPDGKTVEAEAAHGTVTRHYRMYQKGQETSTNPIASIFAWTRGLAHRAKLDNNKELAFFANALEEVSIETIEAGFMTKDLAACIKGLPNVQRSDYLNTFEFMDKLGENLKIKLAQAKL
T1 sequence (O75874 whole entry R132H): as the sequence (O75874 whole entry) above, with R132H counted along it
T3 sequence (P53991 36-354): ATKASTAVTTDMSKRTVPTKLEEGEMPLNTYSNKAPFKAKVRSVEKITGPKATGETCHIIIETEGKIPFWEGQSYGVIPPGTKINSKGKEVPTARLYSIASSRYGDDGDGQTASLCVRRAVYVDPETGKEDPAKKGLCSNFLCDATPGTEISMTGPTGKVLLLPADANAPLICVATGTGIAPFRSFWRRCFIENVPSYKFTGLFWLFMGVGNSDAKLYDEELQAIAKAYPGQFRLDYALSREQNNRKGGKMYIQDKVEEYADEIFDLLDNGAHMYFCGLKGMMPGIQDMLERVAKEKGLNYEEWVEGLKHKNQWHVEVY

Regarding `NC(=O)C1=CN([C@@H]2O[C@H](COP(=O)(O)OP(=O)(O)OC[C@H]3O[C@@H](n4cnc5c(N)ncnc54)[C@H](OP(=O)(O)O)[C@@H]3O)[C@@H](O)[C@H]2O)C=CC1` [NADPH], the “NADP(H) active site occupancy” value in test [1] is ~ 97.5%. In addition, the “1H NMR of cofactor released by thermal denaturation; native MS; electrochemical” value in test [2] is “wild-type IDH1 (Fig. 1A) copurified with a mixture of NADP^+ and NADPH bound”.

For the molecule `NC(=O)c1ccc[n+]([C@@H]2O[C@H](COP(=O)(O)OP(=O)(O)OC[C@H]3O[C@@H](n4cnc5c(N)ncnc54)[C@H](OP(=O)(O)O)[C@@H]3O)[C@@H](O)[C@H]2O)c1` [NADP^+], in test [2], the “1H NMR of cofactor released by thermal denaturation; native MS; electrochemical” value is “wild-type IDH1 (Fig. 1A) copurified with a mixture of NADP^+ and NADPH bound”. Moreover, the “electrochemical retention after buffer exchange and potential switch” value in test [3] is “IDH1 R132H binds NADP^+ much less tightly than NADPH”.

For `Cc1cc2nc3c(=O)[nH]c(=O)nc-3n(C[C@H](O)[C@H](O)[C@H](O)COP(=O)(O)OP(=O)(O)OC[C@H]3O[C@@H](n4cnc5c(N)ncnc54)[C@H](O)[C@@H]3O)c2cc1C` [flavin adenine dinucleotide], the “1H NMR of cofactor released by denaturation” value in test [4] is “release of its prosthetic group, flavin adenine dinucleotide (FAD), upon denaturation”.
